# Measured values taken from patent US12569468B2, “Use of palovarotene in treatment against HBV virus” (YANG SHENG TANG COMPANY, LTD., priority 2020, dated 2026).
# Assays:
# [1] = system: human primary hepatocytes; test: Safety assessment, CCK-8 cell activity, human primary hepatocytes; format: cell-based; conditions: 1 μM, 5 μM and 25 μM, 6 days treatment
# Protocol: (§1) This experiment was carried out in a 96-well culture plate, with 8×10^4 corresponding cells plated in each well, and the corresponding medium volume was 100 μL, in which each drug to be tested in the HepG2-hNTCP 2B1, HepaRG M14A and primary hepatocyte experimental groups had three final concentrations of 1 μM, 5 μM and 25 μM, each drug to be tested in the HepAD38 cell experimental group had two final concentrations of 1 μM and 5 μM (the drug was diluted with the corresponding medium to the final concentrations, specifically please refer to Example 1, Example 2, Example 4 and Example 5), and to the blank group the same volume of culture medium without drug was added. After the cells had grown to a suitable density, drug was added to perform treatment for 6 days, during which, the medium was changed every two days with fresh drug-containing medium. After the drug treatment, 110 μL of medium containing Beyotime CCK-8 cell activity detection reagent (purchased from Beyotime, Art. No. C0038) (the volume ratio of medium to CCK-8 reagent was 100:10) was used for replacement, the cells were incubated at 37° C. for 30 min, and then all the supernatant was collected for detection of absorbance. The absorbance value was read on PHOMO microplate reader purchased from Zhengzhou Autobio.
# HBV = test: Therapeutic effect in high copy replication model HepAD38; format: cell-based, hepatitis B virus; conditions: 5 μM
# Text: HepAD38 is a hepatoma cell line (D genotype) that stably integrates the HBV genome, it expresses HBV under conditions that may be regulated with tetracycline. […] The HepAD38 has a DNA level about 10 times that of HepG2.2.15, and thus is a high-copy HBV in vitro replication cell model (for the construction method of this cell model, please refer to: Ladner S K, Otto M J, Barker C S, et al. Inducible expression of human hepatitis B virus (HBV) in stably transfected hepatoblastoma cells: a novel system for screening potential inhibitors of HBV replication. Antimicrob Agents Chemother. 1997; 41(8):1715-1720.).
# This experiment was carried out in a 24-well culture plate. […] About 4×10^5HepAD38 cells were plated in each well, 500 μL of medium G containing tetracycline hydrochloride (Tetracycline) was added to each well, Day 0 was set 48 h after the cells were plated, and the medium G containing tetracycline hydrochloride (Tetracycline) was removed at the same time, fresh drug-containing medium F was used for replacement, and then fresh drug-containing medium F was used for replacement every two days until the 8th day, and the levels of HBsAg in the cell supernatant and intracellular HBV DNA were detected on the 8th day. For the method for detection, please refer to Example 1.
# HepG2 hNTCP 2B1 = test: Safety assessment, CCK-8 cell activity, HepG2-hNTCP 2B1; format: cell-based; conditions: 1 μM, 5 μM and 25 μM, 6 days treatment
# Protocol: as §1
# HepaRG M14a = test: Safety assessment, CCK-8 cell activity, HepaRG M14a; format: cell-based; conditions: 1 μM, 5 μM and 25 μM, 6 days treatment
# Protocol: as §1
structure (smiles),measurement,setting,value
CC1(C)CCC(C)(C)c2cc(Cn3cccn3)c(/C=C/c3ccc(C(=O)O)cc3)cc21 [Palovarotene],CCK-8 absorbance value (cell activity) vs blank group,[1],not significantly different
same,surface antigen production (HBsAg in cell supernatant),"HBV; day 8, p<0.01",significant inhibitory effect
same,HBV DNA (intracellular),"HBV; day 8, p<0.05",significant inhibitory effect
same,CCK-8 absorbance value (cell activity) vs blank group,HepG2 hNTCP 2B1,not significantly different
same,CCK-8 absorbance value (cell activity) vs blank group,HepaRG M14a,not significantly different
